Test results as given in article PMC5008386, “Oridonin, a novel lysine acetyltransferases inhibitor, inhibits proliferation and induces apoptosis in gastric cancer cells through p53- and caspase-3-mediated mechanisms” (Oncotarget, 2016).

Biological target: T1, P300 (Homo sapiens, UniProt Q09472)
T1 construct: gene EP300
Assay: fluorogenic P300 acetyltransferase assay; also [3H]-acetyl CoA autoradiography and BLI (Octet RED96) with biotinylated oridonin
Format: biochemical

T1 sequence (Q09472 2-2414): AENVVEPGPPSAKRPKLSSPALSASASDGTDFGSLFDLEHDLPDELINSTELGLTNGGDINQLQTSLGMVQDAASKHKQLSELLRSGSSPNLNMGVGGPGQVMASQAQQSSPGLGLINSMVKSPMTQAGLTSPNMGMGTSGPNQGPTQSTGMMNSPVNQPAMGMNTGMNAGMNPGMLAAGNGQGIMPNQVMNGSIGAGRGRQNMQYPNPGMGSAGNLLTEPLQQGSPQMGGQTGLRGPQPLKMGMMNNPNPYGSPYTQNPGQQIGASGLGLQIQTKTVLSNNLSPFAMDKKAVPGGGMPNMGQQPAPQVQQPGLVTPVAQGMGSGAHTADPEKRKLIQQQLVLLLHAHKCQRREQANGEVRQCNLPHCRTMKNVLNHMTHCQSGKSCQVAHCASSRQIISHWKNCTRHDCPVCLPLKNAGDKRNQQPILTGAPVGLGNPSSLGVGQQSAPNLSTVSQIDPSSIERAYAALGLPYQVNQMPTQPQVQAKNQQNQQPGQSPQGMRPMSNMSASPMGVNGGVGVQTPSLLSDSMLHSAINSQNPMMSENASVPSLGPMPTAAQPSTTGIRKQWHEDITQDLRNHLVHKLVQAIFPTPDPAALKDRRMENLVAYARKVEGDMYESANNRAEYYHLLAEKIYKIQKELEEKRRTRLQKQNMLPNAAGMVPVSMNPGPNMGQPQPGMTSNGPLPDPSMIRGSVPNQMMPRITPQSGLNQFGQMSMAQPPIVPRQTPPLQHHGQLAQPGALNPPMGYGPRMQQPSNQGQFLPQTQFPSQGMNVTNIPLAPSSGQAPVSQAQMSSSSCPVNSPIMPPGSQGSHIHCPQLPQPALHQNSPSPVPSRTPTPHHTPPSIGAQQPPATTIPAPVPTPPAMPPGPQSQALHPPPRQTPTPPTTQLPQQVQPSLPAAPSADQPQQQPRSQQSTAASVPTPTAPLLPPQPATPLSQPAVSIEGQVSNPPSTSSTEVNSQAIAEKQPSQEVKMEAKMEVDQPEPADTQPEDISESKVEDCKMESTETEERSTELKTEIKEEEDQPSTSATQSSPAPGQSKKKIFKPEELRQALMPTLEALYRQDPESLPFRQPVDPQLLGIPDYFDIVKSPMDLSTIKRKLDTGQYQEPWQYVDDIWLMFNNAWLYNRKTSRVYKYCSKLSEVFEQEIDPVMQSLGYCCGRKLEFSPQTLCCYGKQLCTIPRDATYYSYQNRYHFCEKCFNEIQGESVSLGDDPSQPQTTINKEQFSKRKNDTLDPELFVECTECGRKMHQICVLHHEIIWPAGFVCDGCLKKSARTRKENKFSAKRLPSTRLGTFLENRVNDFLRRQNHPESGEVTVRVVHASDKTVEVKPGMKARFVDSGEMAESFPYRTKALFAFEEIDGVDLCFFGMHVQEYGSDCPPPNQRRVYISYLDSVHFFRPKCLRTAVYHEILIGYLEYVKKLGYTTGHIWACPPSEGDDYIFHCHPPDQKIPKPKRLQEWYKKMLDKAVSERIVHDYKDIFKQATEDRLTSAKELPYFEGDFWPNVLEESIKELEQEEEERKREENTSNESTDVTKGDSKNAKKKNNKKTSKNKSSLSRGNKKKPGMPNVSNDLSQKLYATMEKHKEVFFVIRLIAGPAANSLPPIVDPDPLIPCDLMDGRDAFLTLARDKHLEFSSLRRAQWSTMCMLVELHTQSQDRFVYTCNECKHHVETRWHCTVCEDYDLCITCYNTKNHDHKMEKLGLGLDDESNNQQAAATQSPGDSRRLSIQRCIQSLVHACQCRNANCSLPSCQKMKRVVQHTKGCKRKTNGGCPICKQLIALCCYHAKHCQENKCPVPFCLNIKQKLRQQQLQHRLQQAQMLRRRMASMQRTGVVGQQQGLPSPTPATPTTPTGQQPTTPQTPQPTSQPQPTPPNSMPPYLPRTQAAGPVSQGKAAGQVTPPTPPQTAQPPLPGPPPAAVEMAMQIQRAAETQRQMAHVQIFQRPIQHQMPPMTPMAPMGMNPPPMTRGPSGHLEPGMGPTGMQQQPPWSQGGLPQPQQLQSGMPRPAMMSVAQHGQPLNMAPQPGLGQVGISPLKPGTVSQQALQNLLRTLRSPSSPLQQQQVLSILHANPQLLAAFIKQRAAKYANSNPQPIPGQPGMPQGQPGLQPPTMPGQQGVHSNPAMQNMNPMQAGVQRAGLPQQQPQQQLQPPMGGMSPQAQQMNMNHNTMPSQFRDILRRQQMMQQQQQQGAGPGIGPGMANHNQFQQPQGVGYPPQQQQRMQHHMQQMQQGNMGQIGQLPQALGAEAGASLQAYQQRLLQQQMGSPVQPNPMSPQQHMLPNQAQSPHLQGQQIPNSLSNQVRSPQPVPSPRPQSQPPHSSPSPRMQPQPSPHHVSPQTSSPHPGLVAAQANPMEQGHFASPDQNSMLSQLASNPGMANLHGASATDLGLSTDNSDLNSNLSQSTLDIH

IC50: ~5 µM
Structure (SMILES): C=C1C(=O)[C@]23[C@H](O)[C@H]1CC[C@H]2[C@@]12CO[C@]3(O)[C@@H](O)[C@@H]1C(C)(C)CC[C@@H]2O [oridonin]
